{"source": "ChEMBL document CHEMBL5518232", "about": "“Discovery of New Tricyclic Oxime Sampangine Derivatives as Potent Antifungal Agents for the Treatment of Cryptococcosis and Candidiasis” (J Med Chem, 2024)", "key": {"Candida albicans [1]": {"system": "Candida albicans", "assay": "Synergistic antifungal activity against Candida albicans 0304103 assessed as inhibition of fungal growth incubated for 48 hrs in presence of (Z)-8-(ethoxyimino)-3-methylthieno[3',2':4,5]benzo[1,2-d]isoxazol-4(8H)-one by checkerboard microdilution assay", "type": "functional"}, "Candida albicans [2]": {"system": "Candida albicans", "assay": "Antifungal activity against Candida albicans SC5314 assessed as reduction in fungal growth incubated for 48 hrs by liquid based microdilution method", "type": "functional"}, "Cryptococcus neoformans [3]": {"system": "Cryptococcus neoformans", "assay": "Inhibition of biofilm formation in Cryptococcus neoformans H99 at 64 ug/ml incubated for 24 hrs by microplate based analysis relative to control", "type": "functional"}, "Cryptococcus neoformans [4]": {"system": "Cryptococcus neoformans", "assay": "Antifungal activity against Cryptococcus neoformans H99 assessed as reduction in fungal growth incubated for 72 hrs by liquid based microdilution method", "type": "functional"}, "Cryptococcus neoformans [5]": {"system": "Cryptococcus neoformans", "assay": "Antifungal activity against Cryptococcus neoformans ATCC 34877 assessed as reduction in fungal growth incubated for 72 hrs by liquid based microdilution method", "type": "functional"}, "Candida albicans [6]": {"system": "Candida albicans", "assay": "Antifungal activity against Candida albicans 0304103 assessed as downregulation of GCA1 expression at 8 ug/ml incubated for 24 hrs in presence of (Z)-8-(methoxyimino)-3-methylthieno[3',2':4,5]benzo[1,2-d]isoxazol-4(8H)-one by RT-PCR analysis", "type": "functional, organism-based", "conditions": "dose 8.0 µg/ml"}, "Candida albicans [7]": {"system": "Candida albicans", "assay": "Synergistic antifungal activity against Candida albicans 0304103 assessed as inhibition of fungal growth incubated for 48 hrs in presence of (Z)-8-(isopropoxyimino)-3-methylthieno[3',2':4,5]benzo[1,2-d]isoxazol-4(8H)-one by checkerboard microdilution assay", "type": "functional"}, "Candida albicans [8]": {"system": "Candida albicans", "assay": "Synergistic antifungal activity against Candida albicans 0304103 assessed as inhibition of fungal growth incubated for 48 hrs in presence of (Z)-8-(methoxyimino)-3-methylbenzofuro[6,5-d]isoxazol-4(8H)-one by checkerboard microdilution assay", "type": "functional"}, "Candida albicans [9]": {"system": "Candida albicans", "assay": "Antifungal activity against Candida albicans 0304103 assessed as reduction in fungal growth incubated for 48 hrs by liquid based microdilution method", "type": "functional"}, "Candida albicans [10]": {"system": "Candida albicans", "assay": "Synergistic antifungal activity against Candida albicans 0304103 assessed as inhibition of fungal growth incubated for 48 hrs in presence of (Z)-8-(hydroxyimino)-3-methylthieno[3',2':4,5]benzo[1,2-d]isoxazol-4(8H)-one by checkerboard microdilution assay", "type": "functional"}, "Candida albicans [11]": {"system": "Candida albicans", "assay": "Antifungal activity against Candida albicans 0304103 assessed as downregulation of TEC1 expression at 8 ug/ml incubated for 24 hrs in presence of (Z)-8-(methoxyimino)-3-methylthieno[3',2':4,5]benzo[1,2-d]isoxazol-4(8H)-one by RT-PCR analysis", "type": "functional, organism-based", "conditions": "dose 8.0 µg/ml"}, "Candida tropicalis": {"system": "Candida tropicalis", "assay": "Antifungal activity against Candida tropicalis 10186 assessed as reduction in fungal growth incubated for 48 hrs by liquid based microdilution method", "type": "functional"}, "Candida albicans [12]": {"system": "Candida albicans", "assay": "In vivo antifungal activity against Candida albicans SC5314 infected in […] ICR mouse model assessed as reduction in fungal burden in kidney at 0.5 mg/kg, ip measured for 5 days in presence of (Z)-8-(methoxyimino)-3-methylthieno[3',2':4,5]benzo[1,2-d]isoxazol-4(8H)-one", "type": "functional", "conditions": "time 5 day"}, "Candida albicans [13]": {"system": "Candida albicans", "assay": "Antifungal activity against Candida albicans 0304103 assessed as reversal of ERG11 expression by measuring fold change at 8 ug/ml incubated for 24 hrs in presence of (Z)-8-(methoxyimino)-3-methylthieno[3',2':4,5]benzo[1,2-d]isoxazol-4(8H)-one by RT-PCR analysis (reference value: 8.8)", "type": "functional", "conditions": "dose 8 µg/ml"}, "Candida albicans [14]": {"system": "Candida albicans", "assay": "Antifungal activity against Candida albicans 0304103 assessed as downregulation of CDR1 expression at 8 ug/ml incubated for 24 hrs in presence of (Z)-8-(methoxyimino)-3-methylthieno[3',2':4,5]benzo[1,2-d]isoxazol-4(8H)-one by RT-PCR analysis", "type": "functional, organism-based", "conditions": "dose 8.0 µg/ml"}, "Candida albicans [15]": {"system": "Candida albicans", "assay": "Inhibition of biofilm formation in Candida albicans 0304103 at 2 ug/ml incubated for 32 hrs by microplate based analysis", "type": "functional, organism-based", "conditions": "dose 2.0 µg/ml"}, "Nakaseomyces glabratus": {"system": "Nakaseomyces glabratus", "assay": "Antifungal activity against Candida glabrata 9073 assessed as reduction in fungal growth incubated for 48 hrs by liquid based microdilution method", "type": "functional"}, "Candida albicans [16]": {"system": "Candida albicans", "assay": "Synergistic antifungal activity against Candida albicans 0304103 assessed as inhibition of fungal growth incubated for 48 hrs in presence of (Z)-9-(ethoxyimino)-3-methylnaphtho[2,3-d]isoxazol-4(9H)-one by checkerboard microdilution assay", "type": "functional"}, "Candida albicans [17]": {"system": "Candida albicans", "assay": "In vivo antifungal activity against Candida albicans 0304103 infected in […] ICR mouse model assessed as reduction in fungal burden in kidney at 5 mg/kg, ip measured for 5 days in presence of (Z)-8-(methoxyimino)-3-methylthieno[3',2':4,5]benzo[1,2-d]isoxazol-4(8H)-one (reference value: 7.37 log10CFU/g)", "type": "functional", "conditions": "time 5 day"}, "Candida albicans [18]": {"system": "Candida albicans", "assay": "Antifungal activity against Candida albicans 0304103 assessed as downregulation of RLM1 expression at 8 ug/ml incubated for 24 hrs in presence of (Z)-8-(methoxyimino)-3-methylthieno[3',2':4,5]benzo[1,2-d]isoxazol-4(8H)-one by RT-PCR analysis", "type": "functional, organism-based", "conditions": "dose 8.0 µg/ml"}, "Candida albicans [19]": {"system": "Candida albicans", "assay": "Antifungal activity against Candida albicans 0304103 assessed as downregulation of APH5 expression at 8 ug/ml incubated for 24 hrs in presence of (Z)-8-(methoxyimino)-3-methylthieno[3',2':4,5]benzo[1,2-d]isoxazol-4(8H)-one by RT-PCR analysis", "type": "functional, organism-based", "conditions": "dose 8.0 µg/ml"}, "Candida albicans [20]": {"system": "Candida albicans", "assay": "Synergistic antifungal activity against Candida albicans 0304103 assessed as inhibition of fungal growth incubated for 48 hrs in presence of (Z)-3-ethyl-8-(methoxyimino)thieno[3',2':4,5]benzo[1,2-d]isoxazol-4(8H)-one by checkerboard microdilution assay", "type": "functional"}, "Candida albicans [21]": {"system": "Candida albicans", "assay": "Synergistic antifungal activity against Candida albicans 0304103 assessed as inhibition of fungal growth incubated for 48 hrs in presence of (Z)-8-(methoxyimino)-3-propylthieno[3',2':4,5]benzo[1,2-d]isoxazol-4(8H)-one by checkerboard microdilution assay", "type": "functional"}, "Candida albicans [22]": {"system": "Candida albicans", "assay": "Synergistic antifungal activity against Candida albicans 0304103 assessed as inhibition of fungal growth incubated for 48 hrs in presence of (4Z,8Z)-benzo[1,2-b:4,5-b']dithiophene-4,8-dione O,O-dimethyl dioxime by checkerboard microdilution assay", "type": "functional"}, "Candida albicans [23]": {"system": "Candida albicans", "assay": "Synergistic antifungal activity against Candida albicans 0304103 assessed as inhibition of fungal growth incubated for 48 hrs in presence of (Z)-9-(methoxyimino)-3-methylnaphtho[2,3-d]isoxazol-4(9H)-one by checkerboard microdilution assay", "type": "functional"}, "Candida albicans [24]": {"system": "Candida albicans", "assay": "Antifungal activity against Candida albicans 0304103 assessed as downregulation of GCA2 expression at 8 ug/ml incubated for 24 hrs in presence of (Z)-8-(methoxyimino)-3-methylthieno[3',2':4,5]benzo[1,2-d]isoxazol-4(8H)-one by RT-PCR analysis", "type": "functional, organism-based", "conditions": "dose 8.0 µg/ml"}, "Candida albicans [25]": {"system": "Candida albicans", "assay": "Inhibition of biofilm formation in Candida albicans 0304103 at 8 ug/ml incubated for 24 hrs in presence of (Z)-8-(methoxyimino)-3-methylthieno[3',2':4,5]benzo[1,2-d]isoxazol-4(8H)-one by microplate based analysis relative to control", "type": "functional"}, "[26]": {"assay": "Antifungal activity against Cryptococcus gattii VGI ATCC 14116 assessed as reduction in fungal growth incubated for 72 hrs by liquid based microdilution method", "type": "functional"}, "Candida albicans [27]": {"system": "Candida albicans", "assay": "Synergistic antifungal activity against Candida albicans 0304103 assessed as inhibition of fungal growth incubated for 48 hrs in presence of ((Z)-8-(methoxyimino)-3-methylthieno[3',2':4,5]benzo[1,2-d]isoxazol-4(8H)-one by checkerboard microdilution assay", "type": "functional"}, "Candida albicans [28]": {"system": "Candida albicans", "assay": "Synergistic antifungal activity against Candida albicans 0304103 assessed as inhibition of fungal growth incubated for 48 hrs in presence of (Z)-8-(methoxyimino)benzo[1,2-b:4,5-b']dithiophen-4(8H)-one by checkerboard microdilution assay", "type": "functional"}, "Candida albicans [29]": {"system": "Candida albicans", "assay": "Synergistic antifungal activity against Candida albicans 0304103 assessed as inhibition of fungal growth incubated for 48 hrs in presence of (Z)-9-(hydroxyimino)-3-methylnaphtho[2,3-d]isoxazol-4(9H)-one by checkerboard microdilution assay", "type": "functional"}, "Candida albicans [30]": {"system": "Candida albicans", "assay": "Antifungal activity against Candida albicans 0304103 assessed as downregulation of ERG11 expression at 8 ug/ml incubated for 24 hrs in presence of (Z)-8-(methoxyimino)-3-methylthieno[3',2':4,5]benzo[1,2-d]isoxazol-4(8H)-one by RT-PCR analysis", "type": "functional, organism-based", "conditions": "dose 8.0 µg/ml"}}, "note": "Calls of active or inactive are those of the source. No cut-off for these calls is given here."}
{"smiles": "OC(Cn1cncn1)(Cn1cncn1)c1ccc(F)cc1F", "note": "[FLUCONAZOLE]", "values": [{"measurement": "MIC80", "setting": "Candida albicans [1]", "result": 1, "unit": "µg/mL"}, {"measurement": "MIC80", "setting": "Candida albicans [2]", "result": 0.5, "unit": "µg/mL"}, {"measurement": "inhibition at 64 µg/mL", "setting": "Cryptococcus neoformans [3]", "result": 80, "unit": "%"}, {"measurement": "MIC80", "setting": "Cryptococcus neoformans [4]", "result": 2, "unit": "µg/mL"}, {"measurement": "MIC80", "setting": "Cryptococcus neoformans [5]", "result": 1, "unit": "µg/mL"}, {"measurement": "Activity", "setting": "Candida albicans [6]", "result": "Active"}, {"measurement": "MIC80", "setting": "Candida albicans [7]", "result": 2, "unit": "µg/mL"}, {"measurement": "MIC80", "setting": "Candida albicans [8]", "result": 2, "unit": "µg/mL"}, {"measurement": "MIC80", "setting": "Candida albicans [9]", "result": "> 64", "unit": "µg/mL"}, {"measurement": "MIC80", "setting": "Candida albicans [10]", "result": 4, "unit": "µg/mL"}, {"measurement": "Activity", "setting": "Candida albicans [11]", "result": "Active"}, {"measurement": "MIC80", "setting": "Candida tropicalis", "result": "> 64", "unit": "µg/mL"}, {"measurement": "Activity", "setting": "Candida albicans [12]", "result": 5.02, "unit": "log10CFU/g"}, {"measurement": "fold change (FC)", "setting": "Candida albicans [13]", "result": 0.8}, {"measurement": "Activity", "setting": "Candida albicans [14]", "result": "Active"}, {"measurement": "inhibition", "setting": "Candida albicans [15]", "result": "inactive"}, {"measurement": "MIC80", "setting": "Nakaseomyces glabratus", "result": 32, "unit": "µg/mL"}, {"measurement": "MIC80", "setting": "Candida albicans [16]", "result": 0.5, "unit": "µg/mL"}, {"measurement": "Activity", "setting": "Candida albicans [17]", "result": 5.31, "unit": "log10CFU/g"}, {"measurement": "Activity", "setting": "Candida albicans [18]", "result": "Active"}, {"measurement": "Activity", "setting": "Candida albicans [19]", "result": "Active"}, {"measurement": "MIC80", "setting": "Candida albicans [20]", "result": 1, "unit": "µg/mL"}, {"measurement": "MIC80", "setting": "Candida albicans [21]", "result": 8, "unit": "µg/mL"}, {"measurement": "MIC80", "setting": "Candida albicans [22]", "result": "> 64", "unit": "µg/mL"}, {"measurement": "MIC80", "setting": "Candida albicans [23]", "result": 1, "unit": "µg/mL"}, {"measurement": "Activity", "setting": "Candida albicans [24]", "result": "Active"}, {"measurement": "inhibition at 8 µg/mL", "setting": "Candida albicans [25]", "result": 50, "unit": "%"}, {"measurement": "MIC80", "setting": "[26]", "result": 1, "unit": "µg/mL"}, {"measurement": "MIC80", "setting": "Candida albicans [27]", "result": 1, "unit": "µg/mL"}, {"measurement": "MIC80", "setting": "Candida albicans [28]", "result": 1, "unit": "µg/mL"}, {"measurement": "MIC80", "setting": "Candida albicans [29]", "result": 2, "unit": "µg/mL"}, {"measurement": "Activity", "setting": "Candida albicans [30]", "result": "Active"}]}
